Laboratory results as given in publication PMC9145765, “Identification and Molecular Characterization of the Operon Required for L-Asparagine Utilization in Corynebacterium glutamicum” (Microorganisms, 2022).

Tests used:
AnsR = target: T1, AnsR (Corynebacterium glutamicum, UniProt A0AB72VEC9); assay: EMSA, release of promoter DNA from His-tagged AnsR; conditions: effector abolishing operator DNA binding; […] L-Asn preincubated […] min; pH […]; room temperature
T1 construct: gene cgR_2807; His-tagged (pColdI, plasmid pCRC667), E. coli BL21(DE3), Ni-NTA; annotated start codon is wrong, true start is the ATG 12 nt downstream
T1 sequence (A0AB72VEC9 5-238 limits assumed): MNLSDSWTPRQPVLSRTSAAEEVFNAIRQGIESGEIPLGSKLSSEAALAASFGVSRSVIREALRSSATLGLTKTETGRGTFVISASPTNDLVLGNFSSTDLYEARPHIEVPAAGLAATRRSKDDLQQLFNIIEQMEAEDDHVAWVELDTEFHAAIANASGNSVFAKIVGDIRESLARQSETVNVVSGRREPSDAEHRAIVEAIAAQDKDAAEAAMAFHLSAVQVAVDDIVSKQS

[1] = system: T2, AnsR (Corynebacterium glutamicum R (JCM 18229)), ORF:3b2fc73c; assay: EMSA; conditions: 20 mM Tris-HCl pH 8.0, 100 mM NaCl, 3 mM MgCl2, 5 mM CaCl2, 0.1 mM EDTA, 0.1 mM DTT, 10% glycerol, 0.15 mg/mL BSA, room temperature, 25 min; 5% PAGE in 0.5x …
T2 sequence: T1 sequence (A0AB72VEC9 5-238 limits assumed)

Molecule	EMSA, release of promoter DNA from His-tagged AnsR (AnsR)	binding [1]
NC(=O)C[C@H](N)C(=O)O [L-Asn]	L-Asn inhibited the binding of AnsR to the site	–
GTTCATGGTGAACATCATGCATTGTGATGCACCTTACGTCAAGGACTTCTTGTTAAGTGATTCTCTTTGTGCAGGTTATGGCAATAAAAAGAACCTGCCCCGAAAAGGGAACAGGCTCTTTTTTCGGTAAGGGTTAAGCCAATGAAGCAAGTCCGAACATTGCGTAAGCCATGATGAAACCAACGATGGCAATACAGGTCTGGTTCACGGTCCAG (double strand) [probe -209 to +6]	–	no binding
